From patent publication US20080139489A1, “USE OF KETOLIDES FOR PREVENTING ARTERIAL THROMBOTIC COMPLICATIONS RELATED TO ATHEROSCLEROSIS” (Aventis Pharma S.A., priority 1997, published 2008)

Tested on: rabbit platelets
Assay: In vitro platelet aggregation (turbidimetry, platelet-rich plasma)
Type: cell-based
Details: for activity on this in vitro platelet aggregation test: result in words, concentration and aggregating agent not stated
Experimental: The platelet aggregation is measured by the turbidimetry method inspired by Born, by detecting the optical transmission through a platelet-rich plasma (PRP) to which and aggregating agent has been added. When the platelets aggregate, the plasma becomes clear and the optical transmission increases. Blood is taken (3 tubes per rabbit) by cardiac puncture from a rabbit into tubes containing sodium citrate. To obtain the platelet-rich plasma (PRP), the tubes are centrifuged at 160 g for 10 minutes. The supernatants are collected (PRP) and the pellet is re-centrifuged at 2000 g for 15 minutes to obtain the platelet-poor plasma (PPP). By dilution with the PPP, the PRP is adjusted to a concentration of 300,000 platelets per mm^3±10%. The counting is carried out using a Coulter ZM counter. Tubes containing 320 μl of PRP are incubated at +37° C. for 30 minutes in pre-incubation wells. The aggregometer is calibrated with the PPP for an optical transmission of 100% corresponding to a complete aggregation, and with the PRP obtained from the same rabbit for an optical transmission of 0% corresponding to the absence of aggregation. The test product P is added in a volume of 40 μl. After incubation for 2 minutes, the aggregating agent (10 μM ADP, 0.2 mM sodium arachidonate or collagen […]) is added in a volume of 40 μl. The aggregation begins immediately and can be seen on the printer. On the plot obtained, the height of the aggregation curve is measured in cm from the baseline before addition of the aggregating agent, and then converted into mVolts (=1/OD) using the formula 10 mV=2.5 cm.

**Q.** How did the inhibition at 50 µM (Oryctolagus cuniculus, Platelet, product concentration 5 × 10^−5 M, rabbit platelets, arachidonic acid 0.2 mM, read-out: % of inhibition of the aggregation induced by arachidonic acid) turn out when `CC(=O)Oc1ccccc1C(=O)O` [Aspirin, reference compound] was run?
**A.** 85%

**Q.** And the inhibition at 100 µM (Oryctolagus cuniculus, Platelet, product concentration 10^−4 M, rabbit platelets, arachidonic acid 0.2 mM, read-out: % of inhibition of the aggregation induced by arachidonic acid)?
**A.** 100%

**Q.** What about the inhibition at 10 µM (Oryctolagus cuniculus, Platelet, product concentration 10^−5 M, rabbit platelets, arachidonic acid 0.2 mM, read-out: % of inhibition of the aggregation induced by arachidonic acid) of the same molecule?
**A.** 13%

**Q.** What about the inhibition at 1 µM (Oryctolagus cuniculus, Platelet, product concentration 10^−6 M, rabbit platelets, arachidonic acid 0.2 mM, read-out: % of inhibition of the aggregation induced by arachidonic acid) of the same molecule?
**A.** 8%

**Q.** How did the “activity on this in vitro platelet aggregation test” value (“activity on this” below) turn out when `CCC1OC(=O)C(C)C(=O)C(C)C(OC2OC(C)CC(N(C)C)C2O)C(C)(OC)CC(C)C(=O)C(C)C2N(CCCCn3cnc(-c4cccnc4)n3)C(=O)OC12C` (centres unmarked) [Product P1] was run?
**A.** good activity

**Q.** For `CCC1OC(=O)C(C)(F)C(=O)C(C)C(OC2OC(C)CC(N(C)C)C2O)C(C)(OC)CC(C)C(=O)C(C)C2N(CCCCn3cnc(-c4cccnc4)c3)C(=O)OC12C` [Product P2, 11,12-dideoxy-3-de((2,6-dideoxy-3-C-methyl-3-O-methyl-alpha-L-ribohexopyranosyl)oxy)-2-fluoro-6-O-methyl-3-oxo-12,11-(oxycarbonyl((4-(4-(3-pyridyl)-1H-imidazol-1-yl)butyl)-imino))erythromycin], which “activity on this” value is on record?
**A.** good activity

**Q.** How did the “activity on this” value turn out when `CCC1OC(=O)C(C)C(=O)C(C)C(OC2OC(C)CC(N(C)C)C2O)C(C)(OC)CC(C)C(=O)C(C)C2N(CCCCn3cnc(-c4cccnc4)c3)C(=O)OC12C` [Product P3, 11,12-dideoxy-3-de((2,6-dideoxy-3-C-methyl-3-O-methyl-alpha-L-ribohexopyranosyl)oxy)-6-O-methyl-3-oxo-12,11-(oxycarbonyl((4-(4-(3-pyridyl)-1H-imidazol-1-yl)butyl)imino))erythromycin] was run?
**A.** good activity

**Q.** With `CC[C@H]1OC(=O)[C@H](C)C(=O)[C@H](C)[C@@H](O[C@@H]2O[C@H](C)C[C@H](N(C)C)[C@H]2O)[C@](C)(OC)C[C@@H](C)C(=O)[C@H](C)[C@H]2N(COCCn3cnc(-c4cccnc4)c3)C(=O)O[C@]12C` [Product P] as the molecule, how does the “% of inhibition of the aggregation induced by arachidonic acid” value (from here on “% of inhibition … by arachidonic acid”) (product concentration 10^−4 M, rabbit platelets, arachidonic acid 0.2 mM) read?
**A.** 90%

**Q.** What about the “% of inhibition … by arachidonic acid” value (product concentration 10^−5 M, rabbit platelets, arachidonic acid 0.2 mM) of the same molecule?
**A.** 73%

**Q.** What about the “% of inhibition … by arachidonic acid” value (product concentration 10^−6 M, rabbit platelets, arachidonic acid 0.2 mM) of the same molecule?
**A.** 42%

**Q.** What about the “% of inhibition … by arachidonic acid” value (product concentration 10^−7 M, rabbit platelets, arachidonic acid 0.2 mM) of the same molecule?
**A.** 7%
